Results on one molecule are retold here after paper PMC5074465, “Duloxetine Inhibits Microglial P2X4 Receptor Function and Alleviates Neuropathic Pain after Peripheral Nerve Injury” (PLoS ONE, 2016).

As a reminder, the IC50 is the point on the concentration scale where inhibition reaches its midpoint.

One assay deals with T1, rat P2X4R (rP2X4R) (Rattus norvegicus, UniProt P51577).
T1 construct: gene P2rx4; rP2X4R stably expressed in 1321N1 cells
T1 sequence (P51577 1-388): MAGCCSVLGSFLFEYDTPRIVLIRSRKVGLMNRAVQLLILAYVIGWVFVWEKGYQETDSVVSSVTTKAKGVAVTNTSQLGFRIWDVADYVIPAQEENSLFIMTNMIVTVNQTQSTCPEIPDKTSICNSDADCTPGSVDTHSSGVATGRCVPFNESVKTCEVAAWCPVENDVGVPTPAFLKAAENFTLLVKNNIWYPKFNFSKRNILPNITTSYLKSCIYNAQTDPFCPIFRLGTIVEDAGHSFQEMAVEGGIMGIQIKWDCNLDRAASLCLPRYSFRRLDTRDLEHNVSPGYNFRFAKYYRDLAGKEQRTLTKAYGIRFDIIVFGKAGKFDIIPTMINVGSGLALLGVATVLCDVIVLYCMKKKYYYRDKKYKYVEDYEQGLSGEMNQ
In words: Fura-2 Ca2+ assay (FDSS […]EX), inhibition of […] ATP response, […] duloxetine. Type of assay: cell-based.

Assay [1] addresses T2, human P2X4R (P2X4 receptor) (Homo sapiens, UniProt Q99571).
T2 construct: gene P2RX4
T2 sequence (Q99571 1-388): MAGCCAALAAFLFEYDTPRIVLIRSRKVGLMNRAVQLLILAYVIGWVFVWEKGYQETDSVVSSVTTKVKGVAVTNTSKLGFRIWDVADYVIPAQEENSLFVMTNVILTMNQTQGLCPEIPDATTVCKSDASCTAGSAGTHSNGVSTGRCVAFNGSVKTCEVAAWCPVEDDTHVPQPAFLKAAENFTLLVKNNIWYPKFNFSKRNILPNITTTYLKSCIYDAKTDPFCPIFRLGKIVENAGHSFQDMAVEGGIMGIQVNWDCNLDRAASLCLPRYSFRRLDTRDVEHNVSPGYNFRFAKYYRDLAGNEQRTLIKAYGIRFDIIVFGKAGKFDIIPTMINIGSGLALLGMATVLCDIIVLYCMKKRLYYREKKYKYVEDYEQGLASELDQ
In words: cell-based.

With `CNCC[C@H](Oc1cccc2ccccc12)c1cccs1` [duloxetine], the “Fura-2 Ca2+ assay (FDSS 7000EX), inhibition of 10 μM ATP response, 3-30 μM dulox” value at rat P2X4R (rP2X4R) is on record as “The inhibitory effect of duloxetine was concentration dependent in rP2X4R-1321N1 cells (Fig 1A)”. Moreover, the concentration for half-maximal inhibition (IC50) in assay [1] turned out to be 1590 nM.
